From patent US8541598B2, “Biodegradable solvents for the chemical industry” (Dublin City University, priority 2007, dated 2013) come the findings set out here.

Data set [1] in a line: Antimicrobial activity / minimum inhibitory concentrations on seven strains of bacteria. As to conditions: seven strains, not split; range tested 0-20000 μg/ml; read-out: MIC values. It is filed as cell-based. On the procedure:
(§1) Seven strains of bacteria were used in the assessment of the antimicrobial activity of the ILs claimed: 4 gram negative and three gram positive as shown below.
(§2) A wide concentration range was tested (0-20000 μg/ml). The concentrations screened for antibacterial activity are generally from 2 μg/ml to 1000 μg/ml (Table 6). […] The concentration range screened for the ILs containing ethers was up to 20000 μg/ml. At these high concentrations a lack of antibacterial activity is a significant result.

In data set [2] the test system is Pseudomonas aeruginosa, Escherichia coli, Klebsiella sp., Salmonella sp., Staphylococcus aureus, Enterococcus sp., Bacillus subtilis. Described as above. It is filed as cell-based. As to conditions: for toxicity / antibacterial activity in words: seven strains of bacteria; for MIC values: seven strains, not split, range tested 0-20000 μg/ml. On the procedure:
as §1, §2

“Also recorded” adds a separate entry of the source.

For `CCCCOC(=O)Cn1cc[n+](C)c1.[Br-]` [KG19, 3-Methyl-1-(butoxycarbonylmethyl) imidazolium bromide], the MIC in data set [1] is greater than 20 mg/mL.

Consider `COCCOC(=O)C[n+]1ccn(C)c1` [KG36, 3-methyl-1-(2-[2-methoxy]ethoxycarbonylmethyl)imidazolium octylsulfate], for which the MIC in data set [1] is greater than 20 mg/mL. In addition, the “toxicity / antibacterial activity in words” value in data set [2] was “non-toxic”. For `CCOCCOC(=O)C[n+]1ccn(C)c1` [KG37, 3-methyl-1-(2-[2-ethoxy]ethoxycarbonylmethyl)imidazolium octylsulfate], the MIC in data set [1] was greater than 20 mg/mL. For the same molecule, in data set [2], the “toxicity / antibacterial activity in words” value is “non-toxic”. Consider `CCCCOCCOCCOC(=O)Cn1cc[n+](C)c1.N#C[N-]C#N` [KG82, 3-methyl-1-(2-[2-butoxyethoxy]ethoxycarbonylmethyl)imidazolium N(CN)2], for which, in data set [2], the “toxicity / antibacterial activity in words” value is “non-toxic” and the MIC values was greater than 20000 KG82 μg/ml. For `COCCOC(=O)Cn1cc[n+](C)c1.N#C[N-]C#N` [KG75, 3-methyl-1-(2-[2-methoxy]ethoxycarbonylmethyl)imidazolium N(CN)2] the same measures were “non-toxic” and greater than 20000 KG75 μg/ml. For the molecule “2,3-dimethyl-1-(2-[2-butoxy]ethoxycarbonylmethyl)imidazolium BF4 [KG71]”, in data set [2], the “toxicity / antibacterial activity in words” value was “non-toxic” and the MIC values is reported as greater than 20000 KG71 μg/ml.

Take `CCCOCCOC(=O)Cn1cc[n+](C)c1.O=S(=O)([N-]S(=O)(=O)C(F)(F)F)C(F)(F)F` [KG51, 3-methyl-1-(2-[2-propoxy]ethoxycarbonylmethyl)imidazolium NTf2]: in data set [2], the “toxicity / antibacterial activity in words” value is recorded as “non-toxic” and the MIC values worked out at 10000 KG51 μg/ml. For “3-methyl-1-(2-[2-butoxyethoxy]ethoxycarbonylmethyl)imidazolium PF6 [KG30]” the same measures were “non-toxic” and greater than 20000 KG30 μg/ml. For `CCCCOCCOC(=O)Cn1cc[n+](C)c1.O=S(=O)([N-]S(=O)(=O)C(F)(F)F)C(F)(F)F` [KG52, 3-methyl-1-(2-[2-butoxy]ethoxycarbonylmethyl)imidazolium NTf2] the same measures were “non-toxic” and greater than 20000 KG52 μg/ml.

As for `Cc1n(C)cc[n+]1CC(=O)N1CCCC1` [KG404, 2,3-dimethyl-1-(pyrrolidinylcarbonylmethyl)imidazolium octylsulfate, reference compound], in data set [1], the MIC was greater than 20 mg/mL.

For `CCC(NC(=O)Cn1cc[n+](C)c1)OC.[Br-]` (stereo not shown) [KG423, (3-methyl-1-[1-methoxypropyl]carbamylmethyl)imidazolium bromide], in data set [2], the “toxicity / antibacterial activity in words” value is recorded as “low toxicity” and the MIC values was greater than 20000 KG423 μg/ml.

Consider `CCCOCCOC(=O)C[n+]1ccn(C)c1.N#C[N-]C#N` [KG77, 3-methyl-1-(2-[2-propoxy]ethoxycarbonylmethyl)imidazolium N(CN)2], for which, in data set [2], the “toxicity / antibacterial activity in words” value was “non-toxic” and the MIC values is greater than 20000 KG77 μg/ml. For “2,3-dimethyl-1-(2-[2-methoxyethoxy]ethoxycarbonylmethyl)imidazolium PF6 [KG33]” the same measures were “non-toxic” and greater than 20000 KG33 μg/ml. Taken in the same sequence, the figures for `CCCOCCOCCOC(=O)Cn1cc[n+](C)c1.N#C[N-]C#N` [KG81, 3-methyl-1-(2-[2-propoxyethoxy]ethoxycarbonylmethyl)imidazolium N(CN)2] were “non-toxic” and greater than 20000 KG81 μg/ml. On to `Cn1cc[n+](CC(=O)N2CCCC2)c1` [KG403, 3-methyl-1-(pyrrolidinylcarbonylmethyl)imidazolium octylsulfate, reference compound], for which the MIC in data set [1] is greater than 20 mg/mL. For `COCCOCCOC(=O)C[n+]1ccn(C)c1C.N#C[N-]C#N` [KG85, 2,3-dimethyl-1-(2-[2-methoxyethoxy]ethoxycarbonylmethyl)imidazolium N(CN)2], in data set [2], the “toxicity / antibacterial activity in words” value is listed as “non-toxic” and the MIC values is recorded as greater than 20000 KG85 μg/ml.

Consider `CCCCOCCOC(=O)Cn1cc[n+](C)c1C.N#C[N-]C#N` [KG84, 2,3-dimethyl-1-(2-[2-butoxy]ethoxycarbonylmethyl)imidazolium N(CN)2], for which, in data set [2], the “toxicity / antibacterial activity in words” value was “non-toxic” and the MIC values is reported as greater than 20000 KG84 μg/ml.

`CCOCCOCCOC(=O)Cn1cc[n+](C)c1.N#C[N-]C#N` [KG80, 3-methyl-1-(2-[2-ethoxyethoxy]ethoxycarbonylmethyl)imidazolium N(CN)2]: in data set [2], the “toxicity / antibacterial activity in words” value is on record as “non-toxic” and the MIC values was greater than 20000 KG80 μg/ml.

As for `CCOCCOC(=O)C[n+]1ccn(C)c1.N#C[N-]C#N` [KG76, 3-methyl-1-(2-[2-ethoxy]ethoxycarbonylmethyl)imidazolium N(CN)2], in data set [2], the “toxicity / antibacterial activity in words” value is “non-toxic” and the MIC values is given as greater than 20000 KG76 μg/ml. Regarding “2,3-dimethyl-1-(2-[2-methoxyethoxy]ethoxycarbonylmethyl)imidazolium BF4 [KG72]”, in data set [2], the “toxicity / antibacterial activity in words” value is listed as “non-toxic” and the MIC values was greater than 20000 KG72 μg/ml.

As to `COC(C)N(C(=O)Cn1cc[n+](C)c1)C(C)OC.[Br-]` (stereo not shown) [KG407, (3-methyl-1-[bis-1-methoxyethyl]carbamylmethyl)imidazolium bromide], in data set [2], the “toxicity / antibacterial activity in words” value is recorded as “low toxicity; also recorded: non-toxic” and the MIC values is recorded as greater than 20000 KG407 μg/ml. For “3-methyl-1-(2-[2-propoxy]ethoxycarbonylmethyl)imidazolium BF4 [KG64]”, in data set [2], the “toxicity / antibacterial activity in words” value is “non-toxic” and the MIC values was greater than 20000 KG64 μg/ml. Taken in the same sequence, the figures for “3-methyl-1-(2-[2-ethoxyethoxy]ethoxycarbonylmethyl)imidazolium BF4 [KG67]” were “non-toxic” and greater than 20000 KG67 μg/ml. `C[n+]1ccn(CC(=O)N2CCCC2)c1.[Br-]` [KG420, 3-methyl-1-(pyrrolidinylcarbonylmethyl)imidazolium bromide, reference compound] displayed an MIC values in data set [2] greater than 20000 KG420 μg/ml. As to `CCCCCOC(=O)Cn1cc[n+](C)c1.[Br-]` [KG17, 3-Methyl-1-(pentoxycarbonylmethyl) imidazolium bromide], the MIC in data set [1] is greater than 20 mg/mL. Consider “3-methyl-1-(2-[2-methoxy]ethoxycarbonylmethyl)imidazolium BF4 [KG62]”, for which, in data set [2], the “toxicity / antibacterial activity in words” value was “non-toxic” and the MIC values is reported as greater than 20000 KG62 μg/ml. Taken in the same sequence, the figures for “3-methyl-1-(2-[2-butoxy]ethoxycarbonylmethyl)imidazolium BF4 [KG65]” were “non-toxic” and greater than 20000 KG65 μg/ml. For “3-methyl-1-(2-[2-propoxyethoxy]ethoxycarbonylmethyl)imidazolium PF6 [KG29]” the same measures were “non-toxic” and greater than 20000 KG29 μg/ml. In data set [2], `Cc1n(CC(=O)N2CCCC2)cc[n+]1C.[Br-]` [KG421, 2,3-dimethyl-1-(pyrrolidinylcarbonylmethyl)imidazolium bromide, reference compound] came in with an MIC values greater than 20000 KG421 μg/ml. `CCCOCCOCCOC(=O)C[n+]1ccn(C)c1.O=S(=O)([N-]S(=O)(=O)C(F)(F)F)C(F)(F)F` [KG55, 3-methyl-1-(2-[2-propoxyethoxy]ethoxycarbonylmethyl)imidazolium NTf2]: in data set [2], the “toxicity / antibacterial activity in words” value is “non-toxic” and the MIC values was greater than 20000 KG55 μg/ml. As for `CCCCOCCOCCOC(=O)Cn1cc[n+](C)c1.O=S(=O)([N-]S(=O)(=O)C(F)(F)F)C(F)(F)F` [KG56, 3-methyl-1-(2-[2-butoxyethoxy]ethoxycarbonylmethyl)imidazolium NTf2], in data set [2], the “toxicity / antibacterial activity in words” value is “non-toxic” and the MIC values is greater than 20000 KG56 μg/ml. For “3-methyl-1-(2-[2-methoxyethoxy]ethoxycarbonylmethyl)imidazolium BF4 [KG66]” the same measures were “non-toxic” and greater than 20000 KG66 μg/ml. Taken in the same sequence, the figures for `CCOCCOCCOC(=O)C[n+]1ccn(C)c1.O=S(=O)([N-]S(=O)(=O)C(F)(F)F)C(F)(F)F` [KG54, 3-methyl-1-(2-[2-ethoxyethoxy]ethoxycarbonylmethyl)imidazolium NTf2] were “non-toxic” and greater than 20000 KG54 μg/ml. For “3-methyl-1-(2-[2-ethoxy]ethoxycarbonylmethyl)imidazolium PF6 [KG24]” the same measures were “non-toxic” and greater than 20000 KG24 μg/ml. On to `CCCCOCCOC(=O)C[n+]1ccn(C)c1C.O=S(=O)([N-]S(=O)(=O)C(F)(F)F)C(F)(F)F` [KG58, 2,3-dimethyl-1-(2-[2-butoxy]ethoxycarbonylmethyl)imidazolium NTf2], for which, in data set [2], the “toxicity / antibacterial activity in words” value is reported as “non-toxic” and the MIC values is reported as greater than 20000 KG58 μg/ml.

Consider “3-methyl-1-(2-[2-ethoxyethoxy]ethoxycarbonylmethyl)imidazolium PF6 [KG28]”, for which, in data set [2], the “toxicity / antibacterial activity in words” value was “non-toxic” and the MIC values is on record as greater than 20000 KG28 μg/ml. Take “2,3-dimethyl-1-(2-[2-butoxy]ethoxycarbonylmethyl)imidazolium PF6 [KG32]”: in data set [2], the “toxicity / antibacterial activity in words” value is reported as “non-toxic” and the MIC values was greater than 20000 KG32 μg/ml.

Regarding “3-methyl-1-(2-[2-butoxy]ethoxycarbonylmethyl)imidazolium PF6 [KG26]”, in data set [2], the “toxicity / antibacterial activity in words” value is “non-toxic” and the MIC values is given as greater than 20000 KG26 μg/ml.

By MIC is commonly meant the lowest concentration that inhibits growth of the organism.
